Reference: patent US9169241B2, “Quinolinyloxyphenylsulfonamides” (Max-Planck-Gesellschaft Zur Forderung der Wissenschaften …, priority 2009, dated 2015)
Like-named read-outs stand apart in the source and are kept apart here.

Key:
Hs578T [1] = assay: Cell vitality assay (ATP assay, CellTiter-Glo); type: cell-based; settings: Homo sapiens, Hs-578T; HS578T cell line, 72 h; Table Ib; read-out: IC50 ATP-Assay HS578T after 72 h
Experimental: (§1) The CellTiter-Glo® Luminescent Cell Viability Assay (Promega Corporation. Madison, Wis., USA) is method a determining the number of viable cells in culture based on quantification of the ATP being present which is an indicator of metabolically active cells was used according to manufacturers protocol, In detail the assay was performed in a 96 well format were 1000 cells/well were incubated with indicated compound at concentration of 12.5 μM, 6.25 μM, 3.125 μM, 1.56 μM, 0.78 μM, 0.39 μM, 0.195 μM as well as DMSO control for 72 h in 100 μl cell culture medium. IC50 values were calculated as 50% of ATP amount compared to DMSO control.
Protocol for the CellTiter-Glo® Luminescent Cell Viability Assay • 1. Prepare opaque-walled multiwell plates with mammalian cells in culture medium, 100 μl per well for 96-well plates • 2. Prepare control wells containing medium without cells to obtain a value for background luminescence. • 3. Add the compound to be tested to experimental wells, and incubate according to culture protocol. • 4. Equilibrate the plate and its contents at room temperature for approximately 30 minutes. • 5. Add a volume of CellTiter-Glo® Reagent (Promega Corporation. Madison, Wis.) equal to the volume of cell culture medium present in each well. • 6. Mix contents for 2 minutes on an orbital shaker to induce cell lysis. • 7. Allow the plate to incubate at room temperature for 10 minutes to stabilize luminescent signal. • 8. Record luminescence on Microplate Luminometer LB96V (Berthold Tchnologies, Bad Wildbad, Germany). An integration time of 0.1 and 1 second per well

Hs578T [2] = assay: Matrigel outgrowth assay/branching assay; type: cell-based; settings: Homo sapiens, Hs-578T; HS578T cell line; Table Ib; read-out: Total branching inhibition in Matrigel HS578T
Experimental: The Matrigel outgrowth assay is based on the ability of tumor cell to penetrate a solid gel of extracellular matrix proteins mimicking the metastasis formation in vivo. While cells with low invasive potential appear as roundish cell or cell cluster, cells with high invasive potential penetrate the Matrigel and form polymorphic structures. In detail 65 μl of Matrigel matrix (Matrigel™ Matrix, BD Biosciences, Bedford, Mass., USA) with a concentration of 3 mg/ml have been polymerized in 96 well plates for 1 h at 37° C. Subsequently 5000 cell/well were seeded into each well containing cell culture medium and indicated compound with concentrations of 3.125 μM, 1.56 μM and 0.78 μM as well as DMSO control. After 48 h, 72 h and 96 h images of cell were taken on an inverted microscope using a 5× objective (Zeiss Axiovert S100 microscope Carl Zeiss UK, Welwyn Garden City, UK). Only compound concentrations were total branching inhibition was evident were accounted as positive. Method was used as previously described, with some modifications (Thompson E W, et al. Association of increased basement membrane invasiveness with absence of estrogen receptor and expression of vimentin in human breast cancer cell lines. J Cell Physiol 1992; 150:534-44).

Hs578T [3] = assay: Wound healing migration assay; type: cell-based; settings: Homo sapiens, Hs-578T; HS578T cell line; Table Ib
Experimental: This method mimics cell migration during wound healing in vivo. The basic steps involve creating a “wound” in a cell monolayer, capturing the images at the beginning and at regular intervals during cell migration to close the wound, and comparing the images to quantify the migration rate of the cells. In detail, 150000 cell/24 well have been seeded and allowed to form a monolayer overnight. Subsequently a “wound” or “scratch” has been performed with a 1000 μl pipette tip. The STDV of wound size is normally below 10% at time point t0. The assay was stopped by fixation with 0.05% Crystal violet/20% methanol when control scratches were closed. The assay was terminated between 48 h and 72 h depending on the migration potential of the indicated cell line. The “wounds” were visualized with a Zeiss Axiovert S100 microscope (Carl Zeiss UK, Welwyn Garden City, UK). The tested compounds were used at 12.5 μM, 6.25, 3.125 μM and DMSO control. IC50 values have been calculated as 50% wound size in between t0 and t48 or t72.

viable cells in culture = assay: Cell viability assay at 10 μM (CellTiter-Glo, Table VII); type: cell-based; settings: compound 10 μM, 72 h;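 also: graded A 0-20%; B 21-40%; C 41-60%; D over 60% viable cells relative to DMSO control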
Experimental: as §1, with “protocol.” for “protocol,”, “with” for “with indicated”, “10” for “of 12.5 μM, 6.25 μM, 3.125 μM, 1.56 μM, 0.78 μM, 0.39 μM, 0.195”, “Percentage of inhibition was” for “IC50 values were”, “compared to” for “as 50% of”, “of” for “compared to”

[4] = Homo sapiens, HCT-116, HCT116 def, read-out: percentage (%) of viable cells HCT 116def
[5] = Homo sapiens, HCT-116, HCT116 wt, read-out: percentage (%) of viable cells HCT 116wt
[6] = Homo sapiens, HT-29, HT29, read-out: percentage (%) of viable cells HT29
[7] = Homo sapiens, NCI-H358, H358, read-out: percentage (%) of viable cells H358
[8] = Homo sapiens, NCI-H1650, H1650, read-out: percentage (%) of viable cells H1650
[9] = Homo sapiens, NCI-H1666, H1666, read-out: percentage (%) of viable cells H1666
[10] = Homo sapiens, NCI-H1975, H1975, read-out: percentage (%) of viable cells H1975
[11] = Homo sapiens, NCI-H1993, H1993, read-out: percentage (%) of viable cells H1993
[12] = Homo sapiens, A549, read-out: percentage (%) of viable cells A549
[13] = Homo sapiens, HCC827, read-out: percentage (%) of viable cells HCC827
[14] = Homo sapiens, SW480, read-out: percentage (%) of viable cells SW480
[15] = RKO, read-out: percentage (%) of viable cells RKO

melting point [°C] | IC50 (Hs578T [3]) [µM] | Structure (SMILES) | IC50 (Hs578T [1]) [µM] | IC50 (Hs578T [2]) [µM] | viability at 10 µM (viable cells in culture; [4]) [%] | viability at 10 µM (viable cells in culture; [5]) [%] | viability at 10 µM (viable cells in culture; [6]) [%] | viability at 10 µM (viable cells in culture; [7]) [%] | viability at 10 µM (viable cells in culture; [8]) [%] | viability at 10 µM (viable cells in culture; [9]) [%] | viability at 10 µM (viable cells in culture; [10]) [%] | viability at 10 µM (viable cells in culture; [11]) [%] | viability at 10 µM (viable cells in culture; [12]) [%] | viability at 10 µM (viable cells in culture; [13]) [%] | viability at 10 µM (viable cells in culture; [14]) [%] | viability at 10 µM (viable cells in culture; [15]) [%]
123 to 126 | 12.5 to 50 | COc1cc2c(Oc3ccc(Cl)c(NS(=O)(=O)c4ccccc4OC(F)(F)F)c3)ccnc2cc1OCCCN1CCC(C)CC1 [Example 196, N-(2-Chloro-5-{6-methoxy-7-[3-(4-methyl-piperidin-1-yl)-propoxy]-quinolin-4-yloxy}-phenyl)-2-trifluoromethoxy-benzenesulfonamide] | 12.5 to 50 | 10 to 25 | – | – | – | – | – | – | – | – | – | – | – | –
85 to 87 | ≤ 12.5 | COc1cc2c(Oc3cccc(NS(=O)(=O)/C=C/c4ccccc4)c3)ccnc2cc1OCCCN1CCN(C)CC1 [Example 143, 2-Phenyl-ethenesulfonic acid (3-{6-methoxy-7-[3-(4-methyl-piperazin-1-yl)-propoxy]-quinolin-4-yloxy}-phenyl)-amide] | ≤ 12.5 | ≤ 10 | – | – | – | – | – | – | – | – | – | – | – | –
253 to 255 | ≤ 12.5 | COc1ccc2nccc(Oc3ccc(NS(=O)(=O)c4cc(Cl)ccc4Cl)cc3F)c2c1 [Example 203, 2,5-Dichloro-N-[3-fluoro-4-(6-methoxy-quinolin-4-yloxy)-phenyl]-benzenesulfonamide] | ≤ 12.5 | 10 to 25 | – | – | – | – | – | – | – | – | – | – | – | –
225 to 226 | 12.5 to 50 | COc1cc2c(Oc3ccc(NS(=O)(=O)c4cnc(C)[nH]4)cc3F)ccnc2cc1OCCCN1CCC(C)CC1 [Example 168, 2-Methyl-3H-imidazole-4-sulfonic acid (3-fluoro-4-{6-methoxy-7-[3-(4-methyl-piperidin-1-yl)-propoxy]-quinolin-4-yloxy}-phenyl)-amide] | 12.5 to 50 | 10 to 25 | – | – | – | – | – | – | – | – | – | – | – | –
– | 12.5 to 50 | COc1cc2c(Oc3ccc(NS(=O)(=O)c4cnc(C)[nH]4)cc3F)ccnc2cc1OCCCN1CCOCC1 [Example 169, 2-Methyl-3H-imidazole-4-sulfonic acid {3-fluoro-4-[6-methoxy-7-(3-morpholin-4-yl-propoxy)-quinolin-4-yloxy]-phenyl}-amide] | 12.5 to 50 | 10 to 25 | – | – | – | – | – | – | – | – | – | – | – | –
– | ≤ 12.5 | COc1cc2c(Oc3cc(NS(=O)(=O)c4cc(F)ccc4F)ccc3F)ccnc2cc1OCCCN1CCC(C)CC1 [Example 187, 2,5-Difluoro-N-(4-fluoro-3-{6-methoxy-7-[3-(4-methyl-piperidin-1-yl)-propoxy]-quinolin-4-yloxy}-phenyl)-benzenesulfonamide] | ≤ 12.5 | ≤ 10 | – | – | – | – | – | – | – | – | – | – | – | –

Further lines, the compound ahead of its results:

Structure (SMILES) | melting point [°C] | IC50 (Hs578T [3]) [µM] | IC50 (Hs578T [1]) [µM] | IC50 (Hs578T [2]) [µM] | viability at 10 µM (viable cells in culture; [4]) [%] | viability at 10 µM (viable cells in culture; [5]) [%] | viability at 10 µM (viable cells in culture; [6]) [%] | viability at 10 µM (viable cells in culture; [7]) [%] | viability at 10 µM (viable cells in culture; [8]) [%] | viability at 10 µM (viable cells in culture; [9]) [%] | viability at 10 µM (viable cells in culture; [10]) [%] | viability at 10 µM (viable cells in culture; [11]) [%] | viability at 10 µM (viable cells in culture; [12]) [%] | viability at 10 µM (viable cells in culture; [13]) [%] | viability at 10 µM (viable cells in culture; [14]) [%] | viability at 10 µM (viable cells in culture; [15]) [%]
COc1cc2c(Oc3ccc(NS(=O)(=O)c4ccccc4Br)cc3F)ccnc2cc1OCCCN1CCN(C)CC1 [Example 19, 2-Bromo-N-(3-fluoro-4-{6-methoxy-7-[3-(4-methyl-piperazin-1-yl)-propoxy]-quinolin-4-yloxy}-phenyl)-benzenesulfonamide] | 98 to 101 | – | – | – | 21 to 40 | 0 to 20 | 0 to 20 | 0 to 20 | 21 to 40 | 21 to 40 | 21 to 40 | 0 to 20 | 21 to 40 | 21 to 40 | 0 to 20 | 0 to 20
COc1cc2c(Oc3ccc(NS(=O)(=O)c4ccc(F)c(Cl)c4)cc3F)ccnc2cc1OCCCN1CCN(C)CC1 [Example 23, 3-Chloro-4-fluoro-N-(3-fluoro-4-{6-methoxy-7-[3-(4-methyl-piperazin-1-yl)-propoxy]-quinolin-4-yloxy}-phenyl)-benzenesulfonamide] | 108 to 110 | – | – | – | 0 to 20 | 0 to 20 | 0 to 20 | 0 to 20 | 21 to 40 | 21 to 40 | 0 to 20 | 0 to 20 | 41 to 60 | 21 to 40 | 0 to 20 | 0 to 20
COc1cc2c(Oc3ccc(NS(=O)(=O)c4cccc(F)c4)cc3F)ccnc2cc1OCCCN1CCN(C)CC1 [Example 22] | 82 to 84 | – | – | – | 21 to 40 | 21 to 40 | 0 to 20 | 0 to 20 | 21 to 40 | 21 to 40 | 0 to 20 | 0 to 20 | > 60 | 21 to 40 | 0 to 20 | 21 to 40
COc1cc2c(Oc3ccc(NS(=O)(=O)c4ccc(Cl)cc4F)cc3F)ccnc2cc1OCCCN1CCCCC1 [Example 3, 4-Chloro-2-fluoro-N-{3-fluoro-4-[6-methoxy-7-(3-piperidin-1-yl-propoxy)-quinolin-4-yloxy]-phenyl}-benzenesulfonamide] | 122 to 124 | – | – | – | 0 to 20 | 0 to 20 | 0 to 20 | 0 to 20 | 41 to 60 | 41 to 60 | 21 to 40 | 21 to 40 | 21 to 40 | > 60 | 0 to 20 | 0 to 20
COc1cc2c(Oc3ccc(NS(=O)(=O)c4cc(Cl)ccc4Cl)cc3F)ccnc2cc1OCCCN1CCN(C)CC1 [Example 20, 2,5-Dichloro-N-(3-fluoro-4-{6-methoxy-7-[3-(4-methyl-piperazin-1-yl)-propoxy]-quinolin-4-yloxy}-phenyl)-benzenesulfonamide] | 134 to 136 | – | – | – | 21 to 40 | 0 to 20 | 0 to 20 | 0 to 20 | 21 to 40 | 21 to 40 | 21 to 40 | 21 to 40 | > 60 | 41 to 60 | 0 to 20 | 0 to 20
